Patent US11155517B2, “4-substituted phenylamine derivatives and their use to protect crops by fighting undesired phytopathogenic micoorganisms” (PI INDUSTRIES LTD., priority 2016, dated 2021)

Legend:
[1] = tested on: Pyricularia oryzae; experiment: microbe, parasite or virus in culture; assay type: cell-based; conditions: 168 h, read-out: % control compared to the untreated check (radial growth)
[2] = tested on: Rhizoctonia solani; experiment: Rhizoctonia solani (rice sheath blight/potato black scurf) in vitro test, radial growth on Potato Dextrose Agar; assay type: cell-based; conditions: 168 h, 300 ppm, seven days, 25° C., read-out: % control compared to the untreated check (radial growth)
[3] = tested on: Botrytis cinerea; experiment: Botrytis cinerea (gray mold) in vitro test, radial growth on Potato Dextrose Agar; assay type: cell-based; conditions: 168 h, 300 ppm, seven days, 22° C., read-out: % (control) compared to the untreated check (radial growth)
[4] = tested on: Alternaria solani; experiment: Alternaria solani (early blight of tomato/potato) in vitro test, radial growth on Potato Dextrose Agar; assay type: cell-based; conditions: 168 h, 300 ppm, seven days, 25° C., read-out: % control compared to the untreated check (radial growth)
[5] = tested on: Colletotrichum capsici; experiment: Colletotrichum capsici (anthracnose) in vitro test, radial growth on Potato Dextrose Agar; assay type: cell-based; conditions: Colletotrichum truncatum, 168 h; 300 ppm; seven days, 25° C.; read-out: % control compared to the untreated check (radial growth)
[6] = tested on: Septoria lycopersici; experiment: Septoria lycopersici (leaf spot of tomato) in vitro test, radial growth on Potato Dextrose Agar; assay type: cell-based; conditions: 168 h, seven days, 25° C., read-out: % control compared to the untreated check (radial growth)
[7] = tested on: Fusarium culmorum; experiment: Fusarium culmorum (foot rot of cereals) in vitro test, radial growth on Potato Dextrose Agar; assay type: cell-based; conditions: Fusarium culmorum, 168 h, read-out: % control compared to the untreated check (radial growth)
[8] = tested on: Fusarium culmorum; experiment: Greenhouse Fusarium culmorum test in wheat, preventive; assay type: in vivo; conditions: 24 h, read-out: Efficacy (% control), disease severity vs untreated check
Method: Compounds were dissolved in 2% DMSO/Acetone & then mixed with water to calibrated spray volume of 50 ml. This 50 ml spray solution was poured into the spray bottles for further applications.
To test the preventive activity of compounds, healthy young wheat plants raised in the greenhouse were sprayed with active compound preparation at the stated application rates inside the spray cabinets using hallowcone nozzles. One day after treatment, the plants were inoculated with spore suspension (2% Malt) containing 2×10^6 Fusarium culmorum inoculum. The inoculated plants were then kept in greenhouse chamber at 24° C. temperature and 80-90% relative humidity for disease expression.
A visual assessment of compound's performance was carried by rating the disease severity (0-100% scale) on treated plants on 3, 7, 10 and 15 days after application. Efficacy (% control) of the compounds was calculated by comparing the disease rating in the treatment with untreated control. The sprayed plants were also assessed for compound's phytotoxic effects by recording symptoms like necrosis, chlorosis and stunting.

[9] = tested on: Botrytis cinera; experiment: Greenhouse Botrytis cinera test in tomato, preventive; assay type: in vivo; conditions: 24 h, plants sprayed one day before inoculation, read-out: Efficacy (% control), disease severity vs untreated check

SMILES | inhibition of growth at 300 ppm [1] | inhibition of growth at 300 ppm [2] | inhibition of growth at 300 ppm [3] | inhibition of growth at 300 ppm [4] | inhibition of growth at 300 ppm [5] | inhibition of growth at 300 ppm [6] | inhibition of growth at 300 ppm [7] | pest or weed control at 500 ppm [8] | pest or weed control at 500 ppm [9]
CCN(C)C=Nc1cc(C)c(Cc2ccc(Cl)cc2)cc1C [Compound 7, N′-(4-(4-chlorobenzyl)-2,5-dimethylphenyl)-N-ethyl-N-methylformimidamide] | > 75% | > 80% | > 80% | > 75% | > 80% | > 70% | 75% | 70 to 100% | 70 to 100%
CCN(C)C=Nc1cc(C)c(Cc2ccc(S(C)(=O)=O)cc2)cc1C [Compound 12, N′-(2,5-dimethyl-4-(4-(methylsulfonyl)benzyl)phenyl)-N-ethyl-N-methylformimidamide] | > 75% | – | – | > 75% | – | – | – | 70 to 100% | 70 to 100%
CCN(C)C=Nc1cc(C)c(Cc2cccc(Br)c2)cc1Cl [Compound 13, N′-(4-(3-bromobenzyl)-2-chloro-5-methylphenyl)-N-ethyl-N-methylformimidamide] | > 75% | > 80% | > 80% | > 75% | > 80% | > 70% | – | 70 to 100% | 70 to 100%
CCN(C)C=Nc1cc(C)c(Cc2ccccc2Cl)cc1Cl [Compound 17, N′-(2-chloro-4-(2-chlorobenzyl)-5-methylphenyl)-N-ethyl-N-methylformimidamide] | > 75% | > 80% | > 80% | > 75% | > 80% | > 70% | 75% | 70 to 100% | 70 to 100%
CCN(C)C=Nc1cc(C)c(Cc2ccccc2Cl)cc1C [Compound 18, N′-(4-(2-chlorobenzyl)-2,5-dimethylphenyl)-N-ethyl-N-methylformimidamide] | > 75% | > 80% | > 80% | > 75% | > 80% | > 70% | 75% | 70 to 100% | 70 to 100%
CCN(C)C=Nc1cc(C)c(Cc2ccc(Br)cc2)cc1Cl [Compound 22, N′-(4-(4-bromobenzyl)-2-chloro-5-methylphenyl)-N-ethyl-N-methylformimidamide] | > 75% | > 80% | > 80% | > 75% | > 80% | > 70% | 75% | 70 to 100% | 70 to 100%
CCN(C)C=Nc1cc(C)c(Cc2ccc(F)c(Cl)c2)cc1C [Compound 28, N′-(4-(3-chloro-4-fluorobenzyl)-2,5-dimethylphenyl)-N-ethyl-N-methylformimidamide] | > 75% | > 80% | > 80% | > 75% | > 80% | > 70% | 75% | 70 to 100% | 70 to 100%
CCN(C)C=Nc1cc(C)c(Cc2cccc(F)c2)cc1Cl [Compound 30, N′-(2-chloro-4-(3-fluorobenzyl)-5-methylphenyl)-N-ethyl-N-methylformimidamide] | > 75% | > 80% | > 80% | > 75% | > 80% | > 70% | 75% | 70 to 100% | –
CCN(C)C=Nc1cc(C)c(C2(c3ccccc3)SCCS2)cc1C [Compound 33, N′-(2,5-dimethyl-4-(2-phenyl-1,3-dithiolan-2-yl)phenyl)-N-ethyl-N-methylformimidamide] | > 75% | > 80% | – | > 75% | – | > 70% | – | 70 to 100% | –
